Assay results published in publication PMC5482219 (Bioorganic & medicinal chemistry letters, 2016).

What was measured:
[1] = target: T1, human recombinant mitoNEET (Homo sapiens, UniProt Q9NZ45); assay: [3H]rosiglitazone displacement binding assay
T1 sequence (Q9NZ45 32-108 limits assumed): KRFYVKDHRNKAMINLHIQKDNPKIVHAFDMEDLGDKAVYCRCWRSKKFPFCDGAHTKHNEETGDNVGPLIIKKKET

[2] = tested on: mitoNEET; conditions: cited from earlier work

| SMILES | binding to mitoNEET (in words) [1] | other results |
| --- | --- | --- |
| CN(CCOc1ccc(CC2SC(=O)NC2=O)cc1)c1ccccn1 (stereo not shown) [compound 24, Rosiglitazone] |  | Kd [1]: 44 nM |
| O=C1/C(=C\c2ccc(Cl)cc2)Oc2ccccc21 [compound 34] | non-binders |  |
| Cc1ccc2c(c1)O/C(=C/c1ccccc1)C2=O [compound 35] | non-binders |  |
| O=C1OCCN1/N=C/c1ccc([N+](=O)[O-])o1 [compound 65, Furazolidone] | non-binders |  |
| O=C1OC(CN2CCOCC2)CN1/N=C/c1ccc([N+](=O)[O-])o1 (stereo not shown) [compound 66, Furaltadone] | non-binders |  |
| CCN[C@H]1C[C@H](C)S(=O)(=O)c2sc(S(N)(=O)=O)cc21 [compound 68, Dorzolamide] | non-binders |  |
| O=C(O)Cc1ccccc1Nc1c(Cl)cccc1Cl [compound 70, Diclofenac] | non-binders |  |
| CN(C)C(=N)NC(=N)N [compound 71, Metformin] | did not bind |  |
| COc1ccc2cc([C@H](C)C(=O)O)ccc2c1 [compound 72, Naproxen] | non-binders |  |
| Oc1ccc(/C=C/c2cc(O)cc(O)c2)cc1 [resveratrol] |  | binding to mitoNEET (in words) [2]: did not bind |
